Assay results published in patent US20090286695A1, “LUMINESCENT STEM CELLS AND USES THEREOF” (AXXAM S.P.A., priority 2006, published 2009).
Each block holds one compound with its values, some of them ahead of it.

Columns and labels:
Format in all cases: cell-based, mouse
[1] = test system: Metabotropic or Ionotropic Glutamate Receptors; test: FLIPR384 Fluo-4 NW calcium test on undifferentiated and neuron-differentiated P19/mito c-Photina/1A1 clone; settings: 100 μM final; undifferentiated cells vs day 8 neurons; FIG. 23
Protocol: Concerning undifferentiated P19/mito c-Photina®/1A1 clone, 3000 cells/well were seeded in gelatin coated 384 well plates. 24 h after seeding the cells were incubated with 25 μl/well of Fluo-4 NW® calcium sensitive fluorescent dye in the dark.
Concerning neurons differentiated from P19/mito c-Photina®/1A1 clone, at day 8 of the neuronal differentiation protocol (4 days after seeding in poly D-lysine coated 384 well plates) cells were incubated with 25 μl/well of Fluo-4 NW® calcium sensitive fluorescent dye in the dark.
Both plates were incubated for 30 minutes at 37° C. and then for 30 minutes at room temperature.
12.5 μl/well of the following 3× compounds in tyrode buffer were injected, and the fluorescence signal was recorded for 330 sec and expressed as RFU.
The same experiment was in contemporary performed on undifferentiated P19/mito c-Photina® 1A1 clone (at 24 h after seeding of 3000 cells/well in 384 MTP, FIG. 23A).

[2] = test system: Voltage-gated Calcium Channels; test: CCD camera-based luminometer test on neurons differentiated from P19/mito c-Photina/1A1 clone; settings: 40 mM; differentiation day 8 and 11; 384 MTP; tyrode as control; FIG. 21
Protocol: At day 8 and day 11 of the neuronal differentiation protocol (respectively 4 and 7 days after seeding in poly D-lysine coated 384 MTP), neurons differentiated from P19/mito c-Photina®/1A1 clone were incubated with 25 μl/well of 10 μM coelenterazine in standard tyrode buffer, for 4 hrs at 37° C.
Response to a depolarizing stimulus induced by injection of 40 mM KCl was recorded at CCD camera-based luminometer (conditions: high sensitivity, reading time 60 seconds).
The functionality of these cells was also investigated at CCD camera-based luminometer. At differentiation day 8 and 11 (respectively 4 and 7 days after disaggregation of Embryoid Bodies and seeding on poly D-lysine in 384 MTP), the cells were incubated for 4 h with a tyrode solution containing 10 μM coelenterazine.

[3] = test system: neurons differentiated from P19/mito c-Photina/1A1 clone; test: FLIPR384 Fluo-4 NW test on neurons differentiated from P19/mito c-Photina/1A1 clone; settings: 40 mM, differentiation day 8, FIG. 22
Protocol: 12.5 μl/well of 120 mM KCl (3×) solution was injected, and the fluorescence signal was recorded for 360 sec and expressed as RFU (Relative Fluorescence Units).
At differentiation day 8 the same cells were analyzed also at FLIPR^384 incubating the cells with FLUO-4 NW® and injecting 40 mM KCl depolarizing agent.

[4] = test system: α1-Adrenergic Receptor; test: CCD camera-based luminescent functional test on cardiomyocytes differentiated from ES/mito c-Photina/29 clone; settings: 100 μM; 20,000 c/w in 96 MTP; 10 μM coelenterazine; high sens., 60 sec; FIG. 8A
[5] = test system: GqPCR Endothelin Receptors; test: as above; settings: 50 nM; 20,000 c/w in 96 MTP; 10 μM coelenterazine; high sens., 60 sec; FIG. 8A
Protocol: CCD-Camera Based Luminometer Measurements with Cardiomyocytes • EBs were dissociated at differentiation day 9 with Accutase™ (Chemicon, Cat. N. SCR005), counted and incubated (20000 cells/well in a 96 MTP) in 10 μM coelenterazine in standard tyrode buffer (for the test on GqPCRs) and in tyrode without KCl (for the test on L-type Calcium Channels) for 3 hrs at 37° C. • The tests were run 3 h after cell seeding. • The responses to 50 nM Endothelin-1, 100 μM Noraepinephrine were measured at the CCD camera-based luminometer (conditions: high sensitivity, reading time 60 seconds). • The Voltage gated Calcium Channels were stimulated with 40 mM KCl. The specificity of the channels was checked incubating the cells 15 minutes before he measurement with 5 μM Nifedipine (a specific L-type Voltage-gated Calcium Channel inhibitor) (SIGMA, Cat. N. N7634). • Residual total photoprotein activity was measured after Triton X-100 cell lysis at the CCD camera-based luminometer (conditions: high sensitivity, for 30 seconds). Neuronal Differentiation Protocol with the Embryoid Bodies (EBs) Formation Step
Preliminary functional tests were performed at the CCD camera-based luminometer instrument after Embryoid Bodies disaggregation with Accutase® buffer and resuspension in 10 μM coelenterazine tyrode buffer. The cells were counted and seeded at a cellular concentration of 20,000 c/w in a 96 MTP. […]

Compound: N[C@@H](CCC(=O)O)C(=O)O [Glutamate]
fluorescence signal after stimulation, undifferentiated vs differentiated cells [1]: much higher in the differentiated cells than in the undifferentiated ones

Compound: [Cl-].[K+] [KCl]
luminescence response to depolarizing stimulus [2]: optimal responses
fluorescence signal (calcium entry) after depolarizing agent [3]: sensible increase of the signal

luminescence response (calcium) to agonist [4]: strong
Compound: NC[C@H](O)c1ccc(O)c(O)c1 [Norephinephrine]

luminescence response (calcium) to agonist [5]: strong
Compound: Endothelin-1
